Patent US6833368B2, “1, 2, 5, 10-tetrahydropyridazino[4, 5-b]quinoline-1,10-diones and their use for the treatment of pain” (AstraZeneca AB, priority 2000, dated 2004)

Assays:
[1] = molecular target: T1, NMDA receptor glycine site (Rattus norvegicus, UniProt P35439); test: Test A: Inhibition of binding of [3H]-MDL105,519 to brain membranes; settings: inhibition of 1.2 nM [3H]MDL105,519 binding to brain membranes; rat or human membranes not specified
T1 construct: The rat brain membranes used in the experiments were obtained from Analytical Biological Services Inc; tissue Analytical Biological Services Inc; host or cells: rat brain membranes (cerebral cortex and hippocampus, Sprague Dawley)
Method: Test A: Inhibition of Binding of [^3H]-MDL105,519:
Binding of compounds to the NMDA receptor glycine site may be assessed by measuring the ability of test compounds to inhibit the binding of tritiated MDL105,519 to brain membranes bearing the receptor.
Rat Brain Membranes: The rat brain membranes used in the experiments were obtained from Analytical Biological Services Inc., and were prepared substantially in accordance with the method of B. M. Baron et al., J. Pharmacol. Exp. Ther. 250, 162 (1989). Briefly, fresh brain tissue including cerebral cortex and hippocampus from […] Sprague Dawley rats was homogenized in 0.32 M sucrose and centrifuged at low speed to separate cellular membranes from other cellular components. The membranes were then washed 3 times using deionized water, followed by treatment with 0.04% Triton X-100. Finally, membranes were washed six times in 50 mM Tris citrate buffer, pH 7.4, and frozen at −80° C. until use.
[^3H]MDL105,519 (72 Ci/mmol) was purchased from Amersham. Cold MDL105,519 was purchased from Sigma/RBI. Binding assays were performed substantially in accordance with the protocol of B. M. Baron et al., J. Pharmacol. Exp. Ther. 279, 62 (1996), as follows. On the day of the experiment, brain membranes were thawed at room temperature and suspended in 50 mM tris acetate buffer, pH 7.4 (“TAB”). Seventy-five micro grams per milliliter protein (by using the BioRad dye) were used for competition binding. The experiments were carried out using 96-well plates. Membranes were incubated with 20 μL of compounds of various concentrations and 1.2 nM [^3H]MDL105,519 for 30 minutes at room temperature in a total volume of 250 μL. Non specific binding was determined by using 100 μM of unlabeled MDL105,519. The unlabeled MDL105,519 and compounds were dissolved as 12.5 mM stock solutions in DMSO. Final DMSO concentration in each well was kept below 1%, which concentration was found not to alter the binding results. After incubation, unbound [^3H]MDL105,519 was removed by filtration onto GF/B Unifilter plates using a Packard harvester. Filters were washed four times with ice cold TAB (total of 1.2 mL buffer). The plates were dried overnight at room temperature and bound radioactivity was measured on a Packard TopCount after the addition of 45 μL per well of the MICROSCINT O.
Human Brain Membranes: Human brain membranes were obtained from Analytical Biological Services Inc., and assays were performed as described for rat membranes.
Data analysis: Data was analyzed using a Microsoft Excel spreadsheet and GraphPad Prizm software and potency of compounds is expressed as the Ki (nM).

[2] = system: CCI rats (thermal hyperalgesia); settings: oral, three times daily for 5 days
Source text: The anti-hyperalgesic properties of a compound may be tested with the Chronic Constriction Injury (“CCI”) model.
Procedurally, Sprague-Dawley rats (250-350 g) are anesthetized with sodium pentobarbital and the common sciatic nerve is exposed at the level of the mid thigh by blunt dissection through the biceps femoris. A section of nerve (about 7 mm), proximal to the sciatic trifucation, is freed of tissue and ligated at four positions with chromic gut suture. The suture is tied with about 1 mm spacing between ligatures. The incision is closed in layers and the animals are allowed to recuperate. […] To perform the test, animals are habituated on an elevated glass floor. A radiant heat source is aimed at the mid-plantar hindpaw (sciatic nerve territory) through the glass floor with a 20 second cut-off used to prevent injury to the skin. The latencies for the withdrawal reflex in both hind paws are recorded.
Responses to test compounds are evaluated at different times after oral administration to determine the onset and duration of compound effect. When performing the test, groups of CCI rats receive either vehicle or the test compound orally three times daily for 5 days. […] Compound efficacy is expressed as mean percentage decrease of hyperalgesia compared to that of vehicle-treated animals, calculated as follows: [formula]

Structure (SMILES): O=c1c2ccc(Cl)cc2[nH]c2c(O)nn(C3CCOc4ccccc43)c(=O)c12 (racemic) [Ex. 2, (+/−)-7-Chloro-4-hydroxy-2-(chroman-4-yl)-1,2,5,10-tetrahydropyridazino[4.5-b]quinoline-1.10-dione]
- melting point: > 300 °C
- Ki [1]: 557 nM

Structure (SMILES): O=c1c2ccc(Cl)cc2[nH]c2c(O)nn(C3CCCc4sccc43)c(=O)c12 (racemic) [Ex. 3, (+/−)-7-Chloro-4-hydroxy-2-(4,5,6,7-tetrahydrobenzo[b]thien-4-yl)-1,2,5,10-tetrahydropyridazino[4,5-b]quinoline-1.10-dione]
- melting point: > 300 °C
- Ki [1]: 514 nM

Structure (SMILES): O=c1c2ccc(Cl)cc2[nH]c2c(O)nn(C3CCCc4ccccc43)c(=O)c12 (racemic) [Ex. 4, (+/−)-7-Chloro-4-hydroxy-2-(1,2,3,4-tetrahydronaphth-1-yl)-1.2,5,10-tetrahydropyridazino[4,5-b]quinoline-1,10-dione]
- melting point: > 300 °C
- Ki [1]: 725 nM

Structure (SMILES): O=c1c2ccc(Cl)cc2[nH]c2c(O)nn(C3CCSc4ccccc43)c(=O)c12 (racemic) [Ex. 1, (+/−)-7-chloro-4-hydroxy-2-(2H,3H,4H-Benzo[e]thian-4-yl)-1,2,5,10-tetrahydropyridazino[4,5-b]quinoline-1,10-dione]
- Ki [1]: 411 nM
- Test C % Inh. (percent decrease of hyperalgesia at MED) ([2]; at the MED, versus vehicle-treated animals): 56%
- Test C MED (minimum effective dose) ([2]; dose giving statistically significant decrease in hyperalgesia): 30 mg/kg/day
